Source: US20240174618A1, “SUBSTITUTED (2-HETEROARYLOXYPHENYL)SULFONATES, SALTS THEREOF AND THEIR USE AS HERBICIDAL AGENTS” (Bayer Aktiengesellschaft, priority 2021, published 2024)

Tests used:
Type in all cases: in vivo
Setaria viridis (SETVI) [1] = assay: A. Herbicidal pre-emergence efficacy, SETVI
Text: (§1) Seeds of mono- and dicotyledonous weed plants were placed in plastic pots in sandy loam soil (doubly sown with one species each of mono- or dicotyledonous weed plants per pot) and covered with soil. The compounds of the invention, formulated in the form of wettable powders (WP) or as emulsion concentrates (EC), were then applied onto the surface of the covering soil as aqueous suspension or emulsion with addition of 0.5% additive at a water application rate of 600 liters per hectare (converted). After the treatment, the pots were placed in a greenhouse and kept under good growth conditions for the test plants. After about 3 weeks, the efficacy of the preparations was scored visually in comparison with untreated controls as percentages.
(§2) For example, • 100% efficacy=plants have died, • 0% efficacy=like untreated control plants.
(§3) Tables A1a to A12c below show the effects of selected compounds of the general formula (I) according to table 1 on various harmful plants at an application rate corresponding to 1280 g/ha or less, which were obtained by the experimental procedure mentioned above.

[2] = system: Digitaria sanguinalis (DIGSA); assay: B. Herbicidal post-emergence efficacy, DIGSA; conditions: rated visually after about 3 weeks
Method: (§4) Seeds of mono- and dicotyledonous weed plants were placed in plastic pots in sandy loam soil (doubly sown with in each case one species of mono- or dicotyledonous weed plants per pot), covered with soil and cultivated in a greenhouse under controlled growth conditions. 2 to 3 weeks after sowing, the test plants were treated at the one-leaf stage. The compounds of the invention, formulated in the form of wettable powders (WP) or as emulsion concentrates (EC), were applied onto the green parts of the plants as aqueous suspension or emulsion with addition of 0.5% additive at a water application rate of 600 liters per hectare (converted). After the test plants had been kept in the greenhouse under optimum growth conditions for about 3 weeks, the activity of the preparations was rated visually in comparison to untreated controls.
(§5) For example, • 100% efficacy=plants have died, • 0% efficacy=like untreated control plants
(§6) Tables B1a to B12c below show the effects of selected inventive compounds of the general formula (I) according to table 1 on various harmful plants at an application rate corresponding to 1280 g/ha or less, which were obtained by the experimental procedure mentioned above.

Setaria viridis (SETVI) [3] = assay: B. Herbicidal post-emergence efficacy, SETVI; conditions: 1280 g/ha
Method: as §4, §5, §6

Kochia scoparia (KCHSC) [4] = assay: A. Herbicidal pre-emergence efficacy, KCHSC; conditions: pre-emergence
Text: as §1, §2, §3

[5] = system: Digitaria sanguinalis (DIGSA); assay: A. Herbicidal pre-emergence efficacy, DIGSA; conditions: scored visually after about 3 weeks vs untreated controls
Text: as §1, §2, §3

[6] = system: Abutilon theophrasti (ABUTH); assay: A. Herbicidal pre-emergence efficacy, ABUTH; conditions: 1280 g/ha; scored visually after about 3 weeks vs untreated controls
Text: as §1, §2, §3

Veronica persica (VERPE) [7] = assay: B. Herbicidal post-emergence efficacy, VERPE
Method: as §4, §5, §6

[8] = system: Echinochloa crus-galli (ECHCG); assay: A. Herbicidal pre-emergence efficacy, ECHCG; conditions: 1280 g/ha; scored visually after about 3 weeks vs untreated controls
Text: as §1, §2, §3

[9] = system: Echinochloa crus-galli (ECHCG); assay: B. Herbicidal post-emergence efficacy, ECHCG; conditions: 1280 g/ha, rated visually after about 3 weeks
Method: as §4, §5, §6

Kochia scoparia (KCHSC) [10] = assay: B. Herbicidal post-emergence efficacy, KCHSC; conditions: for Post-emergence efficacy against KCHSC in %: rated visually after about 3 weeks; for Post-emergence efficacy against KCHSC: 1280 g/ha
Method: as §4, §5, §6

[11] = system: Amaranthus retroflexus (AMARE); assay: B. Herbicidal post-emergence efficacy, AMARE
Method: as §4, §5, §6

Veronica persica (VERPE) [12] = assay: A. Herbicidal pre-emergence efficacy, VERPE
Text: as §1, §2, §3

Poa annua (POAAN) [13] = assay: A. Herbicidal pre-emergence efficacy, POAAN
Text: as §1, §2, §3

[14] = system: Abutilon theophrasti (ABUTH); assay: B. Herbicidal post-emergence efficacy, ABUTH; conditions: rated visually after about 3 weeks
Method: as §4, §5, §6

Stellaria media (STEME) [15] = assay: B. Herbicidal post-emergence efficacy, STEME
Method: as §4, §5, §6

[16] = system: Amaranthus retroflexus (AMARE); assay: A. Herbicidal pre-emergence efficacy, AMARE
Text: as §1, §2, §3

Stellaria media (STEME) [17] = assay: A. Herbicidal pre-emergence efficacy, STEME
Text: as §1, §2, §3

Poa annua (POAAN) [18] = assay: B. Herbicidal post-emergence efficacy, POAAN; conditions: 1280 g/ha
Method: as §4, §5, §6

Row | SMILES | Pre-emergence efficacy against SETVI (Setaria viridis (SETVI) [1]; dosage 320 g/ha) [%] | Pre-emergence efficacy against SETVI (Setaria viridis (SETVI) [1]; dosage 1280 g/ha) [%] | Post-emergence efficacy against DIGSA in % ([2]; 1280 g/ha) [%] | Post-emergence efficacy against SETVI (Setaria viridis (SETVI) [3]) [%] | Pre-emergence efficacy against KCHSC (Kochia scoparia (KCHSC) [4]; dosage 320 g/ha) [%] | Pre-emergence efficacy against KCHSC (Kochia scoparia (KCHSC) [4]; dosage 1280 g/ha) [%] | Pre-emergence efficacy against DIGSA ([5]; 320 g/ha) [%] | Pre-emergence efficacy against DIGSA ([5]; 1280 g/ha) [%] | Pre-emergence efficacy against ABUTH [6] [%] | Post-emergence efficacy against VERPE (Veronica persica (VERPE) [7]; 80 g/ha) [%] | Post-emergence efficacy against VERPE (Veronica persica (VERPE) [7]; 320 g/ha) [%] | Post-emergence efficacy against VERPE (Veronica persica (VERPE) [7]; 1280 g/ha) [%] | Pre-emergence efficacy against ECHCG [8] [%] | Post-emergence efficacy against ECHCG in % [9] [%] | Post-emergence efficacy against KCHSC in % (Kochia scoparia (KCHSC) [10]; 320 g/ha) [%] | Post-emergence efficacy against KCHSC (Kochia scoparia (KCHSC) [10]) [%] | Post-emergence efficacy against AMARE ([11]; 80 g/ha) [%] | Post-emergence efficacy against AMARE ([11]; 320 g/ha) [%] | Post-emergence efficacy against AMARE ([11]; 1280 g/ha) [%] | Pre-emergence efficacy against VERPE in % (Veronica persica (VERPE) [12]; 320 g/ha) [%] | further results
1 | N#Cc1cccc(Oc2ncc(Cl)cn2)c1OS(=O)(=O)CC1CC(F)(F)C1 [Example I-79] | 90 | 100 | 100 | 90 | 90 | 100 | 100 | 100 | 90 | 100 | 100 | 100 | 90 | 100 | 100 | 100 | 90 | 100 | 100 | 100 | Post-emergence efficacy against DIGSA in % ([2]; 320 g/ha): 90%; Post-emergence efficacy against KCHSC in % (Kochia scoparia (KCHSC) [10]; 80 g/ha): 90%; Pre-emergence efficacy against VERPE in % (Veronica persica (VERPE) [12]; 1280 g/ha): 100%; Pre-emergence efficacy against POAAN (Poa annua (POAAN) [13]; dosage 1280 g/ha): 90%; Post-emergence efficacy against ABUTH in % ([14]; 320 g/ha): 90%; Post-emergence efficacy against ABUTH in % ([14]; 1280 g/ha): 100%; Post-emergence efficacy against STEME (Stellaria media (STEME) [15]; 80 g/ha): 90%; Post-emergence efficacy against STEME (Stellaria media (STEME) [15]; 320 g/ha): 100%; Post-emergence efficacy against STEME (Stellaria media (STEME) [15]; 1280 g/ha): 100%; Pre-emergence efficacy against AMARE in % ([16]; 80 g/ha): 90%; Pre-emergence efficacy against AMARE in % ([16]; 320 g/ha): 100%; Pre-emergence efficacy against AMARE in % ([16]; 1280 g/ha): 100%; Pre-emergence efficacy against STEME (Stellaria media (STEME) [17]; dosage 320 g/ha): 90%; Pre-emergence efficacy against STEME (Stellaria media (STEME) [17]; dosage 1280 g/ha): 100%
2 | N#Cc1cccc(Oc2ncc(Cl)cn2)c1OS(=O)(=O)CCCCl [Example I-80] | 90 | 100 | 90 | 90 | 90 | 100 | 90 | 100 | 90 | 90 | 90 | 100 | 90 | 100 | 90 | 90 | 100 | 100 | 100 | 90 | Pre-emergence efficacy against VERPE in % (Veronica persica (VERPE) [12]; 1280 g/ha): 100%; Pre-emergence efficacy against POAAN (Poa annua (POAAN) [13]; dosage 320 g/ha): 90%; Pre-emergence efficacy against POAAN (Poa annua (POAAN) [13]; dosage 1280 g/ha): 90%; Post-emergence efficacy against POAAN (Poa annua (POAAN) [18]): 90%; Post-emergence efficacy against ABUTH in % ([14]; 80 g/ha): 90%; Post-emergence efficacy against ABUTH in % ([14]; 320 g/ha): 90%; Post-emergence efficacy against ABUTH in % ([14]; 1280 g/ha): 100%; Post-emergence efficacy against STEME (Stellaria media (STEME) [15]; 80 g/ha): 90%; Post-emergence efficacy against STEME (Stellaria media (STEME) [15]; 320 g/ha): 100%; Post-emergence efficacy against STEME (Stellaria media (STEME) [15]; 1280 g/ha): 100%; Pre-emergence efficacy against AMARE in % ([16]; 80 g/ha): 90%; Pre-emergence efficacy against AMARE in % ([16]; 320 g/ha): 90%; Pre-emergence efficacy against AMARE in % ([16]; 1280 g/ha): 100%; Pre-emergence efficacy against STEME (Stellaria media (STEME) [17]; dosage 320 g/ha): 100%; Pre-emergence efficacy against STEME (Stellaria media (STEME) [17]; dosage 1280 g/ha): 100%
